Reference: BigSolDB 2.1

## Oc1ccc([C@@H]2COc3cc(O)ccc3C2)cc1
In isobutanol, 273.15 K
  solubility (mole fraction): 0.0174
In isobutanol, 278.15 K
  solubility (mole fraction): 0.02
In isobutanol, 283.15 K
  solubility (mole fraction): 0.0229
In isobutanol, 288.15 K
  solubility (mole fraction): 0.0261
In isobutanol, 293.15 K
  solubility (mole fraction): 0.0296
In isobutanol, 298.15 K
  solubility (mole fraction): 0.0334
In isobutanol, 303.15 K
  solubility (mole fraction): 0.0376
In isobutanol, 308.15 K
  solubility (mole fraction): 0.0421
In isobutanol, 313.15 K
  solubility (mole fraction): 0.047
In isobutanol, 318.15 K
  solubility (mole fraction): 0.0523
In isobutanol, 323.15 K
  solubility (mole fraction): 0.058
In isobutanol, 328.15 K
  solubility (mole fraction): 0.0641
In isobutanol, 333.15 K
  solubility (mole fraction): 0.0706
In isopentanol, 273.15 K
  solubility (mole fraction): 0.0226
In isopentanol, 278.15 K
  solubility (mole fraction): 0.0261
In isopentanol, 283.15 K
  solubility (mole fraction): 0.0301
In isopentanol, 288.15 K
  solubility (mole fraction): 0.0345
In isopentanol, 293.15 K
  solubility (mole fraction): 0.0394
In isopentanol, 298.15 K
  solubility (mole fraction): 0.0447
In isopentanol, 303.15 K
  solubility (mole fraction): 0.0506
In isopentanol, 308.15 K
  solubility (mole fraction): 0.057
In isopentanol, 313.15 K
  solubility (mole fraction): 0.0639
In isopentanol, 318.15 K
  solubility (mole fraction): 0.0715
In isopentanol, 323.15 K
  solubility (mole fraction): 0.0797
In isopentanol, 328.15 K
  solubility (mole fraction): 0.0885
In isopentanol, 333.15 K
  solubility (mole fraction): 0.098
In isopropanol, 273.15 K
  solubility (mole fraction): 0.0295
In isopropanol, 278.15 K
  solubility (mole fraction): 0.035
In isopropanol, 283.15 K
  solubility (mole fraction): 0.0412
In isopropanol, 288.15 K
  solubility (mole fraction): 0.0482
In isopropanol, 293.15 K
  solubility (mole fraction): 0.0561
In isopropanol, 298.15 K
  solubility (mole fraction): 0.065
In isopropanol, 303.15 K
  solubility (mole fraction): 0.0749
In isopropanol, 308.15 K
  solubility (mole fraction): 0.086
In isopropanol, 313.15 K
  solubility (mole fraction): 0.0982
In isopropanol, 318.15 K
  solubility (mole fraction): 0.112
In isopropanol, 323.15 K
  solubility (mole fraction): 0.127
In isopropanol, 328.15 K
  solubility (mole fraction): 0.143
In isopropanol, 333.15 K
  solubility (mole fraction): 0.161
In n-butanol, 273.15 K
  solubility (mole fraction): 0.0242
In n-butanol, 278.15 K
  solubility (mole fraction): 0.0284
In n-butanol, 283.15 K
  solubility (mole fraction): 0.0331
In n-butanol, 288.15 K
  solubility (mole fraction): 0.0384
In n-butanol, 293.15 K
  solubility (mole fraction): 0.0442
In n-butanol, 298.15 K
  solubility (mole fraction): 0.0508
In n-butanol, 303.15 K
  solubility (mole fraction): 0.0581
In n-butanol, 308.15 K
  solubility (mole fraction): 0.0661
In n-butanol, 313.15 K
  solubility (mole fraction): 0.0749
In n-butanol, 318.15 K
  solubility (mole fraction): 0.0846
In n-butanol, 323.15 K
  solubility (mole fraction): 0.0951
In n-butanol, 328.15 K
  solubility (mole fraction): 0.107
In n-butanol, 333.15 K
  solubility (mole fraction): 0.119
In n-heptane, 273.15 K
  solubility (mole fraction): 0.000431
In n-heptane, 278.15 K
  solubility (mole fraction): 0.00049
In n-heptane, 283.15 K
  solubility (mole fraction): 0.000554
In n-heptane, 288.15 K
  solubility (mole fraction): 0.000624
In n-heptane, 293.15 K
  solubility (mole fraction): 0.000699
In n-heptane, 298.15 K
  solubility (mole fraction): 0.000781
In n-heptane, 303.15 K
  solubility (mole fraction): 0.00087
In n-heptane, 308.15 K
  solubility (mole fraction): 0.000964
In n-heptane, 313.15 K
  solubility (mole fraction): 0.00107
In n-heptane, 318.15 K
  solubility (mole fraction): 0.00117
In n-heptane, 323.15 K
  solubility (mole fraction): 0.00129
In n-heptane, 328.15 K
  solubility (mole fraction): 0.00141
In n-heptane, 333.15 K
  solubility (mole fraction): 0.00155
In n-pentanol, 273.15 K
  solubility (mole fraction): 0.0235
In n-pentanol, 278.15 K
  solubility (mole fraction): 0.0273
In n-pentanol, 283.15 K
  solubility (mole fraction): 0.0317
In n-pentanol, 288.15 K
  solubility (mole fraction): 0.0365
In n-pentanol, 293.15 K
  solubility (mole fraction): 0.0419
In n-pentanol, 298.15 K
  solubility (mole fraction): 0.0478
In n-pentanol, 303.15 K
  solubility (mole fraction): 0.0544
In n-pentanol, 308.15 K
  solubility (mole fraction): 0.0616
In n-pentanol, 313.15 K
  solubility (mole fraction): 0.0695
In n-pentanol, 318.15 K
  solubility (mole fraction): 0.078
In n-pentanol, 323.15 K
  solubility (mole fraction): 0.0874
In n-pentanol, 328.15 K
  solubility (mole fraction): 0.0975
In n-pentanol, 333.15 K
  solubility (mole fraction): 0.108
